Experimental data: the supplement of paper PMC10307832

Key:
Assay in all cases: relative viability (nuclei count vs DMSO), 5 days (fraction); higher = more cells survive
Olaparib + Tozasertib = compound: O=C(c1cc(Cc2n[nH]c(=O)c3ccccc23)ccc1F)N1CCN(C(=O)C2CC2)CC1 [Olaparib] + Cc1cc(Nc2cc(N3CCN(C)CC3)nc(Sc3ccc(NC(=O)C4CC4)cc3)n2)n[nH]1 [Tozasertib] (partner 0.1 µM)
Summary of the method: (§1)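 Relative viability was taken as the ratio of nuclei in treated wells to nuclei in vehicle wells. Lung cancer cell lines in 1536-well plates received compounds by pin tool one day after seeding, either one drug alone or a fixed anchor-drug dose plus five library-drug doses (not always all listed) in √10 steps. Nuclei were counted on 4× images after 5 days of treatment, and values are medians of duplicate plates.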

Olaparib + Pictilisib = compound: O=C(c1cc(Cc2n[nH]c(=O)c3ccccc23)ccc1F)N1CCN(C(=O)C2CC2)CC1 [Olaparib] + CS(=O)(=O)N1CCN(Cc2cc3nc(-c4cccc5[nH]ncc45)nc(N4CCOCC4)c3s2)CC1 [Pictilisib] (partner 1 µM)
Summary of the method: as §1

Olaparib + Palbociclib = compound: O=C(c1cc(Cc2n[nH]c(=O)c3ccccc23)ccc1F)N1CCN(C(=O)C2CC2)CC1 [Olaparib] + CC(=O)c1c(C)c2cnc(Nc3ccc(N4CCNCC4)cn3)nc2n(C2CCCC2)c1=O [Palbociclib] (partner 0.5 µM)
Summary of the method: as §1

Crizotinib + Pictilisib = compound: C[C@@H](Oc1cc(-c2cnn(C3CCNCC3)c2)cnc1N)c1c(Cl)ccc(F)c1Cl [Crizotinib] + CS(=O)(=O)N1CCN(Cc2cc3nc(-c4cccc5[nH]ncc45)nc(N4CCOCC4)c3s2)CC1 [Pictilisib] (partner 1 µM)
Summary of the method: as §1

| Cell Line | relative viability (Olaparib + Tozasertib; first compound 0.08 µM) | relative viability (Olaparib + Tozasertib; first compound 0.253 µM) | relative viability (Olaparib + Tozasertib; first compound 2.53 µM) | relative viability (Olaparib + Tozasertib; first compound 8 µM) | relative viability (Olaparib + Pictilisib; first compound 0.08 µM) | relative viability (Olaparib + Pictilisib; first compound 0.253 µM) | relative viability (Olaparib + Pictilisib; first compound 2.53 µM) | relative viability (Olaparib + Pictilisib; first compound 8 µM) | relative viability (Olaparib + Palbociclib; first compound 0.08 µM) | relative viability (Olaparib + Palbociclib; first compound 0.253 µM) | relative viability (Olaparib + Palbociclib; first compound 2.53 µM) | relative viability (Olaparib + Palbociclib; first compound 8 µM) | relative viability (Crizotinib + Pictilisib; first compound 0.01 µM) | relative viability (Crizotinib + Pictilisib; first compound 0.03162 µM) | relative viability (Crizotinib + Pictilisib; first compound 0.1 µM) | relative viability (Crizotinib + Pictilisib; first compound 0.3162 µM) | relative viability (Crizotinib + Pictilisib; first compound 1 µM) |
| --- | --- | --- | --- | --- | --- | --- | --- | --- | --- | --- | --- | --- | --- | --- | --- | --- | --- |
| NCI-H322M | 0.484 | 0.471 | 0.473 | 0.434 | 0.507 | 0.522 | 0.521 | 0.485 | 0.468 | 0.408 | 0.515 | 0.462 | 0.432 | 0.522 | 0.493 | 0.585 | 0.52 |
| NCI-H2085 | 0.943 | 0.756 | 0.847 | 0.753 | 0.468 | 0.433 | 0.427 | 0.368 | 0.559 | 0.453 | 0.477 | 0.459 | 0.357 | 0.484 | 0.409 | 0.437 | 0.451 |
| NCI-H2023 | 0.357 | 0.298 | 0.32 | 0.238 | 0.286 | 0.195 | 0.245 | 0.275 | 0.413 | 0.34 | 0.397 | 0.292 | 0.225 | 0.232 | 0.189 | 0.192 | 0.217 |
| LU99A | 0.299 | 0.292 | 0.261 | 0.22 | 0.303 | 0.293 | 0.3 | 0.296 | 0.45 | 0.392 | 0.31 | 0.323 | 0.261 | 0.327 | 0.348 | 0.336 | 0.365 |
| NCI-H2228 | 0.324 | 0.207 | 0.201 | 0.136 | 0.429 | 0.418 | 0.292 | 0.336 | 0.792 | 0.667 | 0.731 | 0.452 | 0.392 | 0.308 | 0.362 | 0.164 | 0.0922 |
| NCI-H1395 | 0.816 | 0.657 | 0.598 | 0.548 | 0.78 | 0.639 | 0.575 | 0.534 | 0.649 | 0.611 | 0.6 | 0.499 | 0.621 | 0.557 | 0.73 | 0.906 | 0.542 |
| HCC-15 | 0.479 | 0.341 | 0.406 | 0.29 | 0.866 | 0.647 | 0.678 | 0.627 | 0.785 | 0.659 | 0.714 | 0.722 | 0.622 | 0.69 | 0.722 | 0.391 | 0.687 |
| RERF-LC-KJ | 0.531 | 0.453 | 0.505 | 0.475 | 0.491 | 0.522 | 0.648 | 0.526 | 1.17 | 0.964 | 1.08 | 1.02 | 0.502 | 0.628 | 0.476 | 0.561 | 0.621 |
| NCI-H647 | 0.253 | 0.258 | 0.407 | 0.255 | 0.66 |  | 0.486 | 0.515 | 0.431 | 0.331 | 0.321 | 0.381 | 0.432 | 0.393 | 0.459 |  | 0.269 |
| 201T | 1.05 | 0.91 | 0.919 | 0.879 | 0.669 | 0.665 | 0.631 | 0.704 | 0.392 | 0.323 | 0.388 | 0.337 | 0.65 | 0.74 | 0.723 | 0.648 | 0.678 |
| HCC-366 | 0.11 | 0.118 | 0.0926 | 0.0619 | 0.135 | 0.179 | 0.11 | 0.138 | 0.39 | 0.263 | 0.26 | 0.168 | 0.101 | 0.141 | 0.183 | 0.11 | 0.17 |
| HOP-62 | 0.485 | 0.317 | 0.374 | 0.287 | 0.846 | 0.601 | 0.698 | 0.464 | 0.469 | 0.454 | 0.361 | 0.319 | 0.469 | 0.625 | 0.779 | 0.342 | 0.624 |
| NCI-H1734 | 0.25 | 0.249 | 0.251 | 0.251 | 0.469 | 0.471 | 0.419 | 0.336 | 0.337 | 0.327 | 0.29 | 0.304 | 0.419 | 0.406 | 0.381 |  | 0.39 |
| ChaGo-K-1 | 0.286 | 0.198 | 0.232 | 0.197 | 1.27 | 0.674 | 0.75 | 0.661 | 1.03 | 0.908 | 0.908 | 0.664 | 0.736 | 0.651 | 0.825 |  | 0.567 |
| NCI-H2405 | 0.807 | 0.722 | 0.66 | 0.654 | 0.524 | 0.406 | 0.426 | 0.469 | 0.577 | 0.497 | 0.491 | 0.496 | 0.457 | 0.526 | 0.419 | 0.37 | 0.356 |
| NCI-H727 | 0.704 | 0.581 | 0.674 | 0.486 | 0.416 | 0.446 | 0.352 | 0.284 | 0.655 | 0.601 | 0.618 | 0.561 | 0.368 | 0.389 | 0.561 | 0.285 | 0.29 |
| SW 1573 | 0.148 | 0.165 | 0.234 | 0.172 | 0.526 |  | 0.508 | 0.381 | 0.468 | 0.377 | 0.338 | 0.252 | 0.424 | 0.525 | 0.558 | 0.459 | 0.52 |
| HCC-44 | 1.27 | 0.857 | 0.871 | 1.06 | 0.697 | 0.552 | 0.7 | 0.544 | 0.998 | 0.884 | 0.943 | 0.969 | 0.464 | 0.578 | 0.538 | 0.665 | 0.503 |
| A-427 | 0.196 | 0.209 | 0.188 | 0.163 | 0.697 | 0.571 | 0.547 | 0.584 | 0.512 | 0.488 | 0.503 | 0.415 | 0.529 | 0.655 | 0.668 |  | 0.675 |
